# Data published in paper PMC12002112, “NMR Solution Structure of the N‐Terminal GSPII Domain from the Thermus Thermophilus Traffic ATPase PilF and Reconstruction of its c‐di‐GMP Binding Capability” (Chembiochem, 2025).
# “And” between values parts separate entries of the source, which are not always exact repeats. Identical values can stand only once.
# How the values were obtained:
# [1] = system: PilF1–154 H33Q S39R A41G I55L I59L R62Q; assay: NMR titration with c‐di‐GMP, MshEN‐like PilF1–154 construct; type: binding, Thermus thermophilus; conditions: 15 equivalents of c‐di‐GMP
# Experimental: (§1) For NMR experiments, all PilF1–154, PilF1–65 and PilF9–65 samples were prepared in a buffer containing 50 mM BisTris‐HCl pH 5.8, 200 mM NaCl, 1 mM β‐mercaptoethanol with the addition of 5 % (v/v) D2O. 200 μM 2,2‐dimethyl‐2‐silapentane‐5‐sulfonic acid (DSS) was used to directly reference the ^1H chemical shifts internally. With the appropriate conversion factors, the heteronuclear ^13C, ^15N and ^31P chemical shifts were referenced indirectly.[73] All spectra were processed and referenced with Bruker TopSpin™ versions 3.5 and 4.0.7. Chemical shifts were assigned in CARA.[74] NMR‐spectra were acquired on Bruker AVANCE 600, 700, 800, 900 and 950 MHz spectrometers equipped with cryogenic triple resonance probes at 45 °C for PilF1–154 constructs and at 20 °C for the PilF1–65 and the PilF9–65 constructs.
# (§2) NMR titration experiments were carried out as ligand binding assays with uniformly ^15N labeled protein samples from 50 μM to 100 μM and unlabeled c‐di‐GMP. A series of ^15N‐HSQC, ^1H,^15N‐SOFAST‐HMQC or ^15N‐BEST‐TROSY‐HSQC spectra were recorded with increasing c‐di‐GMP concentrations (up to 1.4 mM) and chemical shift changes were evaluated with TopSpin™ 4.0.7.
# [2] = target: T1, PilF1–65 F63Y H33Q S39R A41G I55L I59L R62Q (PilF1–65 F63Y mut6) (Thermus thermophilus, UniProt Q5SLC9, A41G/F63Y/H33Q/I55L/I59L/R62Q/S39R); assay: NMR titration with c‐di‐GMP, PilF1–65 F63Y mut6; type: binding; conditions: high excess of ligand (10fold), 20 °C
# T1 sequence (Q5SLC9 1-65 H33Q/S39R/A41G/I55L/I59L/R62Q/F63Y): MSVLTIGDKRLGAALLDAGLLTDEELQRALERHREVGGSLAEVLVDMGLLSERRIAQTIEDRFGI
# Experimental: as §1, §2
# PilF1–65 F63Y [3] = assay: ITC c‐di‐GMP binding, N‐terminal subdomain; set-up: species or system Thermus thermophilus
# Experimental: (§3) The c‐di‐GMP binding capabilities of the various PilF1–154, PilF1–65 and PilF9–65 constructs were characterized by isothermal titration calorimetry (ITC) measurements in three independent titrations for each construct with detectable binding to c‐di‐GMP. All ITC‐measurements were carried out in 50 mM Tris‐HCl pH 7.5, 200 mM sodium chloride, 1 mM β‐mercaptoethanol at 20 °C using a MicroCal iTC200 instrument (Malvern Pananalytical, UK). In total 40 μl c‐di‐GMP was titrated to 270 μl protein after an initial delay of 120 s in 20 injections while stirring the sample with 750 rpm. The first injection of 0.2 μl c‐di‐GMP in 0.4 s was followed by 19 successive injections of 2 μl in 4 s separated by a 180 s delay using a reference power of 11 μcal^−1. The feedback mode was set to high. Protein and c‐di‐GMP concentrations ranged from 30 μM to 100 μM and 300 μM to 1000 μM, respectively, and were adjusted to the respective binding affinities of the corresponding constructs to optimize measurement precision. Processing of the thermograms was carried out with Origin 7.0 (OriginLab) using a one‐site binding model. An overview of all ITC measurements is given in Supplementary Table 1.
# [4] = target: T2, PilF9–65 F63Y H33Q S39R R62Q (Thermus thermophilus, UniProt Q5SLC9, F63Y/H33Q/R62Q/S39R); assay: NMR titration with c‐di‐GMP, PilF9–65 F63Y H33Q S39R R62Q; type: binding; conditions: high excess of the ligand (15fold), 20 °C
# T2 sequence (Q5SLC9 9-65 H33Q/S39R/R62Q/F63Y): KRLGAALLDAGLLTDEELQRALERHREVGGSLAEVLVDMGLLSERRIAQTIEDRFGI
# Experimental: as §1, §2
# PilF1–65 F63Y [5] = assay: NMR titration with c‐di‐GMP, PilF1–65 F63Y; type: binding, Thermus thermophilus
# Experimental: as §1, §2
# [6] = target: T3, PilF1–889 (full‐length PilF) (Thermus thermophilus, UniProt Q5SLC9); assay: ITC c‐di‐GMP binding, full‐length PilF; conditions: 20 °C
# T3 sequence (Q5SLC9 1-889): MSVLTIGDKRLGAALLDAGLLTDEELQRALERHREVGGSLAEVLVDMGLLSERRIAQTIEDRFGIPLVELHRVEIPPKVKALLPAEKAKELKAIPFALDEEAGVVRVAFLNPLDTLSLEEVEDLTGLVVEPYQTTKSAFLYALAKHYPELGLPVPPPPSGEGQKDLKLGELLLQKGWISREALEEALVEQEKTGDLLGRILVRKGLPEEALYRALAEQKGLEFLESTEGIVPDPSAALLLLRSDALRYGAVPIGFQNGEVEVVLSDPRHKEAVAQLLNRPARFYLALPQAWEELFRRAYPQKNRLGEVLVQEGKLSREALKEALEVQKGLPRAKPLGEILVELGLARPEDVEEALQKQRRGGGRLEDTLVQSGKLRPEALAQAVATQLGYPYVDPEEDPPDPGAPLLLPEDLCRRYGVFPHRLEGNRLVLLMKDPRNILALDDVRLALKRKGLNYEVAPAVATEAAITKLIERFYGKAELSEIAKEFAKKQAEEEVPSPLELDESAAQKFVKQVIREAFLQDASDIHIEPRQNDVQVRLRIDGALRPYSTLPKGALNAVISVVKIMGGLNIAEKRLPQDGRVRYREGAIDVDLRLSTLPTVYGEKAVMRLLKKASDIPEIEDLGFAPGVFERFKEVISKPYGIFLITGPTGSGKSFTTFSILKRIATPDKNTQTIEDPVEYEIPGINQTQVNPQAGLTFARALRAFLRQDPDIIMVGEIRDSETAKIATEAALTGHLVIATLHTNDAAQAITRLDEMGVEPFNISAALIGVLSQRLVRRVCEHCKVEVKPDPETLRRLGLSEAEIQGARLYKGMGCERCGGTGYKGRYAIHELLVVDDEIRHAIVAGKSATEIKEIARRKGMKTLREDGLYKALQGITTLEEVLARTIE
# PilF1–154 = assay: NMR titration with c‐di‐GMP, PilF1–154; type: binding, Thermus thermophilus; conditions: 10 equivalents of c‐di‐GMP, 45 °C
# Experimental: as §1, §2
# [7] = target: T1, PilF1–65 F63Y H33Q S39R A41G I55L I59L R62Q (PilF1–65 F63Y mut6); assay: ITC c‐di‐GMP binding, PilF1–65 F63Y mut6
# Experimental: as §3
# [8] = target: T2, PilF9–65 F63Y H33Q S39R R62Q; assay: ITC c‐di‐GMP binding, PilF9–65 F63Y H33Q S39R R62Q; conditions: 20 °C
# Experimental: as §3
# PilF1–154 (GSPII‐A) = assay: ITC c‐di‐GMP binding, isolated GSPII‐A domain; set-up: species or system Thermus thermophilus; conditions: isolated PilF1–154
# Experimental: as §3
# MshEN = target: MshEN; set-up: method as in PMID 27578558; conditions: monomeric c‐di‐GMP; read-out: KD (affinity) for MshEN; cited from earlier work
# [9] = target: T4, PilF9–65 F63Y H33Q S39R A41G I55L I59L R62Q (PilF9–65 F63Y mut6) (Thermus thermophilus, UniProt Q5SLC9, A41G/F63Y/H33Q/I55L/I59L/R62Q/S39R); assay: ITC c‐di‐GMP binding, PilF9–65 F63Y mut6
# T4 sequence (Q5SLC9 9-65 H33Q/S39R/A41G/I55L/I59L/R62Q/F63Y): T2 sequence (Q5SLC9 9-65 H33Q/S39R/R62Q/F63Y)
# Experimental: as §3
# PilF9–65 F63Y H33Q R62Q = assay: ITC c‐di‐GMP binding, PilF9–65 F63Y H33Q R62Q; set-up: species or system Thermus thermophilus; conditions: S39 reintroduced
# Experimental: as §3
# [10] = target: T5, PilF9–65 F63Y H33Q S39R A41G R62Q (Thermus thermophilus, UniProt Q5SLC9, A41G/F63Y/H33Q/R62Q/S39R); assay: ITC c‐di‐GMP binding, PilF9–65 F63Y H33Q S39R A41G R62Q; conditions: 20 °C
# T5 sequence (Q5SLC9 9-65 H33Q/S39R/A41G/R62Q/F63Y): T2 sequence (Q5SLC9 9-65 H33Q/S39R/R62Q/F63Y)
# Experimental: as §3
structure (smiles),measurement,setting,value
"Nc1nc2c(ncn2C2OC3COP(=O)(O)OC4C(COP(=O)(O)OC3C2O)OC(n2cnc3c(=O)[nH]c(N)nc32)C4O)c(=O)[nH]1 (centres unmarked) [c‐di‐GMP, 3’→5’ cyclic dimeric guanosine monophosphate]",c‐di‐GMP binding in NMR‐titration,[1],no c‐di‐GMP binding
same,chemical shift changes on adding c‐di‐GMP,[2],large chemical shift changes
same,c‐di‐GMP binding in ITC,PilF1–65 F63Y [3],not detectable
same,c‐di‐GMP binding in NMR titration,[4],saturated ligand binding
same,c‐di‐GMP binding in NMR titration,PilF1–65 F63Y [5],not detectable
same,ΔH (binding event 1),[6]; event 1,-11.763 ± 0.78 kcal/mol
same,ΔS (binding event 1),[6]; event 1,-10.4 ± 2.7 cal/mol/deg
same,ΔH (binding event 2),[6]; event 2,-15.683 ± 0.97 kcal/mol
same,ΔS (binding event 2),[6]; event 2,-16.5 ± 2.2 cal/mol/deg
same,Kd,"[6]; pH 7.5, PilF1–889, binding event 1, read-out: KD1 (first binding event)",324 nM
same,N (binding event 1),"[6]; stoichiometry, event 1",0.72 ± 0.1
same,N (binding event 2),"[6]; stoichiometry, event 2",0.59 ± 0.03
same,chemical shift changes on adding c‐di‐GMP,PilF1–154,does not cause any chemical shift changes
same,N,"[7]; ITC, 20 °C",0.6 ± 0.2
same,ΔH,"[7]; ITC, 20 °C",-1.342 ± 0.513 kcal/mol
same,ΔS,"[7]; ITC, 20 °C",17.1 ± 2.3 cal/mol/deg
same,Kd,"[7]; ITC, 20 °C, pH 7.5, PilF1–65 F63Y mut6",13000 ± 2000 nM
same,difference in the free energy of binding vs MshEN,[7]; at 20° C,~ 1.9 kcal/mol
same,difference in the free energy of binding vs N‐terminal subdomain (residue 1–62) of MshEN,[7]; at 20° C,~2.3 kcal/mol
same,N,[8],0.7 ± 0.1
same,ΔH,[8],-9.574 ± 0.243 kcal/mol
same,ΔS,[8],-3.6 ± 0.7 cal/mol/deg
same,Kd,"[8]; pH 7.5, PilF9–65 F63Y H33Q S39R R62Q",19000 ± 6000 nM
same,c‐di‐GMP binding in ITC,PilF1–154 (GSPII‐A),did not show any sign of c‐di‐GMP binding
same,Kd,MshEN,500 nM and ~500 nM
same,N,"[9]; ITC, 20 °C",1.2 ± 0.1
same,ΔH,"[9]; ITC, 20 °C",-12.953 ± 0.441 kcal/mol
same,ΔS,"[9]; ITC, 20 °C",-17.9 ± 1.4 cal/mol/deg
same,Kd,"[9]; ITC, 20 °C, pH 7.5, PilF9–65 F63Y mut6",695 ± 42 nM
same,difference in the free energy of binding vs PilF1–65 F63Y mut6,[9]; at 20° C,1.6 kcal/mol
same,c‐di‐GMP binding activity in ITC,PilF9–65 F63Y H33Q R62Q,complete loss of c‐di‐GMP binding activity
same,N,[10],0.8 ± 0.1
same,ΔH,[10],-10.127 ± 0.499 kcal/mol
same,ΔS,[10],-6.4 ± 1.7 cal/mol/deg
same,Kd,"[10]; pH 7.5, PilF9–65 F63Y H33Q S39R A41G R62Q",1800 ± 300 nM
